Assay results published in PubChem BioAssay (NCI).
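Results reflect a 48-hour exposure of cells in 96-well plates to compound at five concentrations. Here, GI50 denotes the concentration required for 50% inhibition of growth. TGI: concentration producing complete growth inhibition.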

Legend:
Experiment in all cases: inhibition of tumour cell growth, NCI panel, 48 h
786-0 renal = system: 786-0 renal
A549 NSCLC = system: A549 NSCLC
ACHN renal = system: ACHN renal
HT29 colon = system: HT29 colon
KM12 colon = system: KM12 colon
NCI-H226 lung = system: NCI-H226 lung
SNB-75 CNS = system: SNB-75 CNS
TK-10 renal = system: TK-10 renal
UACC-257 melanoma = system: UACC-257 melanoma
MALME-3M melanoma = system: MALME-3M melanoma

Compound | TGI (786-0 renal) | TGI (A549 NSCLC) | TGI (ACHN renal) | TGI (HT29 colon) | TGI (KM12 colon) | TGI (NCI-H226 lung) | TGI (SNB-75 CNS) | TGI (TK-10 renal) | GI50 (786-0 renal) | GI50 (A549 NSCLC) | GI50 (ACHN renal) | GI50 (HT29 colon) | GI50 (KM12 colon) | GI50 (NCI-H226 lung) | GI50 (SNB-75 CNS) | GI50 (TK-10 renal) | GI50 (UACC-257 melanoma) | TGI (UACC-257 melanoma) | TGI (MALME-3M melanoma) | GI50 (MALME-3M melanoma)
C=C(COC(C)=O)CC(OC(C)=O)c1ccccc1 (stereo not given) | > 100 µM | > 100 µM | > 100 µM | > 100 µM | > 100 µM | > 100 µM | > 100 µM | > 100 µM |  |  |  |  |  |  |  |  |  |  |  | 
COC(=O)[C@@H](C)C[C@H](Cc1ccccc1)NC(=O)c1csc(CC[C@H](C(C)C)N(C)C(=O)[C@@H](NC(=O)[C@H]2CCCCN2C)C(C)C)n1 | > 30.2 µM | > 33.3 µM | > 33.3 µM | 6.01 µM | > 33.3 µM | > 23.9 µM | 9.2 µM | > 33.3 µM | 0.382 µM | 1.27 µM | 0.324 µM | 0.211 µM | 0.324 µM | 0.856 µM | 0.222 µM | > 15.2 µM | > 33.3 µM | > 33.3 µM |  | 
COc1cc(-c2cc3ncccc3c3nc(N)c4cccnc4c23)cc(OC)c1OC | 10.8 µM | 12.9 µM | 19.1 µM | 15.5 µM | 33.4 µM | > 100 µM |  | 9.29 µM | 0.511 µM | 0.434 µM | 0.769 µM | 0.0762 µM | 0.36 µM | 16.8 µM |  | 1.15 µM | 2.08 µM | 44.7 µM |  | 
Cc1ccc(S(=O)(=O)NC(=O)C2C(=O)CC3(CCCCC3)CC2=O)cc1 | > 100 µM | > 100 µM | 62.1 µM | 92.5 µM | 50 µM | > 100 µM | > 100 µM | 62.1 µM |  |  |  |  |  |  |  |  |  | 78.1 µM |  | 
CCC12CCCN(Cc3ccccc3)C1c1c([nH]c3ccccc13)C(C(=O)OC)C2 (stereo not given) | > 10 µM | > 10 µM | > 10 µM | > 10 µM | > 10 µM |  | > 10 µM | > 10 µM |  |  |  |  |  |  |  |  |  | > 10 µM | > 10 µM | 
COCCCNC(=O)C1C(=O)N(CCCOC)C(=O)/C1=N\N (stereo not given) | > 100 µM | > 100 µM | > 100 µM | > 100 µM | > 100 µM |  | > 100 µM | > 100 µM |  |  |  |  |  |  |  |  |  | > 100 µM | > 100 µM | 
CCC[CH2][Sn]([CH2]CCC)([CH2]CCC)[O]c1ccc(Cl)cc1Cl | 0.266 µM | 0.345 µM | 0.291 µM | 0.293 µM | 0.244 µM |  | 0.445 µM | 0.61 µM | 0.135 µM | 0.159 µM | 0.155 µM | 0.118 µM | 0.0939 µM |  | 0.152 µM | 0.215 µM | 0.154 µM | 0.305 µM | 0.238 µM | 0.0973 µM
CCN(Cc1cccc(F)c1)c1ccc(CO)c(Cl)c1 | 30.3 µM | 35 µM | > 100 µM | > 51.4 µM | > 68.7 µM | 0.18 µM | 54 µM |  | 10.5 µM | 2.31 µM | 29.4 µM | 3.42 µM | 22.1 µM | 0.0467 µM | 12 µM |  | 0.114 µM | 0.344 µM | 50.1 µM | 20 µM
CCOc1ccc2nc(SCc3nc4n(n3)S(=O)(=O)c3ccccc3N4C)sc2c1 | > 100 µM | > 100 µM | > 100 µM | > 100 µM |  | > 100 µM | 83.8 µM |  | > 100 µM | > 100 µM | > 100 µM | > 100 µM |  | > 100 µM | 28.8 µM |  | > 100 µM | > 100 µM |  | 
Cc1ccc(-c2csc(/N=C3\C(=O)Nc4ccccc43)n2)cc1 | 3.28 µM | 11.3 µM | 14.2 µM | 4.83 µM | 4.51 µM | 3.71 µM | 2.85 µM | 5.15 µM | 1.63 µM | 2.98 µM | 2.62 µM | 1.6 µM | 1.86 µM | 1.78 µM | 1.17 µM | 2.52 µM |  |  | 3.4 µM | 1.52 µM
COc1cc2c(c(OC)c1OC)-c1ccc(SC)c(=O)cc1[C@@H](NCc1ccc(C#N)cc1)CC2 | 48.9 µM | 28.6 µM | > 100 µM |  |  | 0.00977 µM | > 100 µM | > 100 µM |  |  |  |  |  |  |  |  |  |  | > 100 µM | 
C=C1C(=O)O[C@H]2[C@H]1CC/C(COC(=O)CSCCSCC(=O)OC/C1=C/CC[C@@]3(C)O[C@H]3[C@H]3OC(=O)C(=C)[C@@H]3CC1)=C\CC[C@@]1(C)O[C@@H]21 | 3.27 µM | 8.21 µM | 3.23 µM | 2.68 µM | 4.06 µM | 13.6 µM |  | 3.29 µM | 1.64 µM | 2.72 µM | 1.7 µM | 1.36 µM | 2.08 µM | 3.51 µM |  | 1.84 µM | 1.93 µM | 3.93 µM | 3.33 µM | 1.48 µM
COC(=O)N(C(=O)OC)C(C(=O)O)C(C)C (stereo not given) | > 100 µM | > 100 µM | > 100 µM | > 100 µM | > 100 µM | > 100 µM | > 100 µM | > 100 µM |  |  |  |  |  |  |  |  |  | > 100 µM |  | 
C=C(c1ccc2nc(NC(=O)OC)[nH]c2c1)c1cccs1 | > 100 µM | > 100 µM | 7.47 µM | > 100 µM | > 100 µM | > 94.5 µM |  | > 100 µM |  |  |  |  |  |  |  |  |  | > 100 µM | > 100 µM | 
O=c1nc(/C=C/c2ccccc2Cl)cc2n1CCN2CCO | > 100 µM |  | > 100 µM | > 100 µM | > 100 µM | > 100 µM | > 100 µM | > 100 µM |  |  |  |  |  |  |  |  |  |  | > 100 µM | 
Cc1ccc(SC(CCC(Sc2ccc(C)cc2)Sc2ccc(C)cc2)Sc2ccc(C)cc2)cc1 | > 100 µM | > 100 µM | > 100 µM |  | > 100 µM |  | > 100 µM | > 100 µM |  |  |  |  |  |  |  |  |  | > 100 µM |  | 
CC1CCC2(CC1)NN=c1s/c(=C\c3ccc(O)cc3)c(=O)n1N2 (stereo not given) | > 100 µM | > 100 µM |  | > 100 µM | > 100 µM | > 100 µM | > 100 µM | > 100 µM |  |  |  |  |  |  |  |  |  |  |  | 
COc1cc(NC(N)=NCCC(C)(C)Oc2ccc(C(F)(F)F)cc2)ncc1C#N | 3.14 µM | 3.18 µM | 3.06 µM | 3.03 µM | 3.17 µM |  | 3.02 µM | 2.91 µM | 1.61 µM | 1.73 µM | 1.7 µM | 1.64 µM | 1.68 µM |  | 1.55 µM | 1.54 µM | 1.7 µM | 3.11 µM | 3.44 µM | 1.81 µM
